Data as given in publication PMC10762035, “Molecular basis of human trace amine-associated receptor 1 activation” (Nature Communications, 2024).
Substitutions are numbered along the chain they refer to. “And” between values parts separate entries of the source, which are not always exact repeats. Equal entries are not always repeated. Where two headings read alike, the source gives them in different places.

Tests used:
[1] = target: T1, hTA1 C5S (Homo sapiens, UniProt Q96RJ0, C5S); test: GloSensor cAMP accumulation assay, C5S mutant; assay type: cell-based; conditions: for C5S - Normalized Luminescence Counts (N=2): log[Compound], single wells
T1 construct: expressed in transfected cells; host or cells: HEK293T
T1 sequence (Q96RJ0 1-339 C5S): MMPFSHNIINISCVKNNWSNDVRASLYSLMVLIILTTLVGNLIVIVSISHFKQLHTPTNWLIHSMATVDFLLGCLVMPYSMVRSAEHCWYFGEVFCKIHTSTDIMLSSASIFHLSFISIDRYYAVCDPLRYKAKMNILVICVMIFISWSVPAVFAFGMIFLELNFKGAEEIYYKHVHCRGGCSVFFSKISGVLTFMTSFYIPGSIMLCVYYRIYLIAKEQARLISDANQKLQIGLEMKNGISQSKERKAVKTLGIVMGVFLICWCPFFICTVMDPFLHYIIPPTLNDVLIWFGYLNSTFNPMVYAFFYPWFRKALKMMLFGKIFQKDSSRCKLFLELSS

[2] = target: T2, hTA1 T194A (Homo sapiens, UniProt Q96RJ0, T194A); test: GloSensor cAMP accumulation assay, T194A mutant
T2 sequence (Q96RJ0 1-339 T194A): T1 sequence (Q96RJ0 1-339 C5S) with S5C, T194A

[3] = target: T3, hTA1 C88/178S (Homo sapiens, UniProt Q96RJ0, C178S/C88S); test: GloSensor cAMP accumulation assay, C88S/C178S double mutant; assay type: cell-based; conditions: for Normalized Luminescence Counts (N=2): log[Compound], single replicate values
T3 construct: expressed in transfected cells; host or cells: HEK293T
T3 sequence (Q96RJ0 1-339 C88S/C178S): T1 sequence (Q96RJ0 1-339 C5S) with S5C, C88S, C178S

[4] = target: T4, hTA1 T271A (Homo sapiens, UniProt Q96RJ0, T271A); test: GloSensor cAMP accumulation assay, T271A mutant; assay type: cell-based
T4 construct: expressed in transfected cells; host or cells: HEK293T
T4 sequence (Q96RJ0 1-339 T271A): T1 sequence (Q96RJ0 1-339 C5S) with S5C, T271A

[5] = target: T5, β2AR-Nterm-hTA1-F112^3.41W (CryoEM Construct) (Homo sapiens, UniProt Q96RJ0, F112W); test: GloSensor cAMP accumulation assay, cryoEM construct; assay type: cell-based;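 further: cells transiently co-transfected with the receptor construct and GloSensor cAMP biosensor, luminescence read after 30 min compound exposure at room temperature in the dark as cAMP accumulation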;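 on Normalized Luminescence Counts (N=2): normalized to the maximum response of β-PEA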
T5 construct: FLAG (N); 10xHis (N); TEV protease site (N); expressed in transfected cells; host or cells: HEK293T
T5 sequence (Q96RJ0 with tags, fused parts or gaps F112W): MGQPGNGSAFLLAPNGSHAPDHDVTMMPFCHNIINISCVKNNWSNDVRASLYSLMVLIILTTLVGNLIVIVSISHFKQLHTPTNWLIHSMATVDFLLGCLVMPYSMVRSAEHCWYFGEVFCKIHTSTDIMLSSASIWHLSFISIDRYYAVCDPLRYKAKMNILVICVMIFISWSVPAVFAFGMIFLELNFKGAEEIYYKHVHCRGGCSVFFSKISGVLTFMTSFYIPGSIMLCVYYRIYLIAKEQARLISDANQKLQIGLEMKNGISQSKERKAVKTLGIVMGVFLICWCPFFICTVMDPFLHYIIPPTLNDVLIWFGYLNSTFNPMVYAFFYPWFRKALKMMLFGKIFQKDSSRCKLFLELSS

[6] = read-out: Span ± SEM (Emax normalized to β-PEA)
[7] = C88S, C178S, each row is one independent experiment, 3 replicates

With `CCC(CC1COC(N)=N1)c1ccccc1` (stereo not shown) [Ro5256390] the EC50 ([1]; EC50, C5S, n=2) was 9.93 nM, the “Emax values, Mean” value ([1]; hTA1 C5S, β-PEA = 100, mean of 3 replicates, one line per independent experiment) was 93.1178 and the “C5S - Normalized Luminescence Counts (N=2)” value ([1]; M = -5) was 103.833 and 96.8115 and 93.515 and 109.052 and 73.4937 and 115.059. The “C5S - Normalized Luminescence Counts (N=2)” value ([1]; M = -5.522) was 100.921 and 96.3599 and 95.6826 and 93.2407 and 55.8872 and 98.4881, the “C5S - Normalized Luminescence Counts (N=2)” value ([1]; M = -6) was 105.12 and 94.0343 and 79.8326 and 75.5651 and 84.541 and 101.802 and the “C5S - Normalized Luminescence Counts (N=2)” value ([1]; M = -6.522) was 95.389 and 104.217 and 100.289 and 100.214 and 115.957 and 88.6146. The “C5S - Normalized Luminescence Counts (N=2)” value ([1]; M = -7) was 82.6549 and 83.4903 and 89.3381 and 93.6549 and 93.9311 and 89.0289, the “C5S - Normalized Luminescence Counts (N=2)” value ([1]; M = -7.522) was 62.4022 and 62.4925 and 74.2106 and 83.9196 and 70.5248 and 74.2532 and the “C5S - Normalized Luminescence Counts (N=2)” value ([1]; M = -8) was 36.7307 and 40.4787 and 36.4823 and 59.3395 and 54.6444 and 53.6087. For the same molecule, the “C5S - Normalized Luminescence Counts (N=2)” value ([1]; M = -9) was 8.372 and 7.4241 and 6.656 and 9.834 and 7.901 and 11.353, the EC50 ([1]; pEC50 values, Mean, hTA1 C5S, mean of 3 replicates, one line per independent experiment) was 15.2 nM and 6.48 nM and the EC50 ([1]; pEC50 ± SEM, C5S, n=2) was 10 nM. It also gave an Emax ([1]; read-out: Emax values, Mean, hTA1 C5S, β-PEA = 100, mean of 3 replicates, one line per independent experiment) of 97.6%, an Emax ([1]; read-out: Span ± SEM (Emax normalized to β-PEA), C5S, n=2) of 95.4 ± 2.26% and an EC50 ([2]; EC50, T194A) of 34.8 nM. For the same molecule, the “Emax values, Mean” value ([2]; T149A (so in the source), single experiments (3 replicates each), β-PEA = 100) was 128.602 and 110.169 and 108.613, the “reduction in potency vs wild type” value ([2]; T194A) was “over 5 fold” and the EC50 ([2]; pEC50 values, Mean, T149A (so in the source), single experiments (3 replicates each)) was 34.8 nM and 27.7 nM and 14.2 nM. The EC50 ([2]; pEC50 ± SEM, T194A) was 24 nM, the Emax [2, 6] was 116 ± 9.22% and the “ΔEmax values (each mutant value - WT average), Mean” value [3, 7] was 2.588 and 13.0349. The “ΔpEC50 values (each mutant value - WT average), Mean” value [3, 7] was -0.3451 and 0.337, the “Normalized Luminescence Counts (N=2)” value ([3]; C88S, C178S, M = -5) was 108.214 and 110.475 and 102.673 and 112.685 and 109.211 and 118.575 and the “Normalized Luminescence Counts (N=2)” value ([3]; C88S, C178S, M = -5.522) was 107.14 and 118.277 and 96.6804 and 111.477 and 99.2423 and 137.304. The “Normalized Luminescence Counts (N=2)” value ([3]; C88S, C178S, M = -6) was 102.956 and 112.171 and 95.8888 and 120.841 and 90.9352 and 145.46, the “Normalized Luminescence Counts (N=2)” value ([3]; C88S, C178S, M = -6.522) was 97.5284 and 100.073 and 116.864 and 116.461 and 100.602 and 130.658 and the “Normalized Luminescence Counts (N=2)” value ([3]; C88S, C178S, M = -7) was 99.1114 and 95.1539 and 92.6097 and 130.507 and 95.1643 and 125.523. The “Normalized Luminescence Counts (N=2)” value ([3]; C88S, C178S, M = -7.522) was 77.3448 and 82.7723 and 86.5603 and 108.607 and 127.336 and 130.961, the “Normalized Luminescence Counts (N=2)” value ([3]; C88S, C178S, M = -8) was 51.564 and 41.5569 and 41.3873 and 109.966 and 74.6229 and 107.852 and the “Normalized Luminescence Counts (N=2)” value ([3]; C88S, C178S, M = -8.522) was 25.1047 and 27.2531 and 18.3768 and 63.5971 and 68.4303 and 61.3315. The “Normalized Luminescence Counts (N=2)” value ([3]; C88S, C178S, M = -9) was 12.0447 and 13.3451 and 14.08 and 33.9934 and 34.4465 and 30.5195, the “Normalized Luminescence Counts (N=2)” value ([3]; C88S, C178S, M = -9.522) was 6.334 and 4.865 and 5.4299 and 15.8687 and 15.4156 and 17.077 and the “Normalized Luminescence Counts (N=2)” value ([3]; C88S, C178S, M = -10) was 1.925 and 5.769 and 1.359 and 9.978 and 13.6031 and 14.0562. For the same molecule, the “Normalized Luminescence Counts (N=2)” value ([3]; C88S, C178S, M = -10.522) was 1.303 and 1.416 and 1.359 and 5.9 and 3.6345 and 7.562, the “Normalized Luminescence Counts (N=2)” value ([3]; C88S, C178S, M = -11) was 1.02 and 0.285 and 0.3416 and 4.3897 and 3.181 and 3.937 and the “Normalized Luminescence Counts (N=2)” value ([3]; C88S, C178S, M = -11.522) was 1.416 and 0.4547 and 1.585 and 3.03 and 0.6137 and 2.275. The “Normalized Luminescence Counts (N=2)” value ([3]; C88S, C178S, M = -12) was 0.0589 and 1.303 and -0.3369 and 0.9158 and 0.009559 and 0.7648, the “Normalized Luminescence Counts (N=2)” value ([3]; C88S, C178S, M = -12.522) was -0.05417 and 0.8504 and 0.7373 and 2.577 and 0.4627 and -0.2925 and the “Emax values, Mean” value ([3]; C88S, C178S, normalized (β-PEA = 100), each row is one independent experiment, 3 replicates) was 105.892 and 116.339. For the same molecule, the EC50 ([3]; EC50, C88/178S, n=2) was 5.38 nM, the EC50 ([3]; pEC50 values, Mean, C88S, C178S, each row is one independent experiment, 3 replicates) was 11.8 nM and 2.46 nM and the Emax [3, 6] was 111 ± 5.22%. The EC50 ([4]; EC50, T271A, n=2) was 14.7 nM, the “Emax values, Mean” value ([4]; T271A mutant, Figure 5B, β-PEA = 100, each row one independent experiment (3 replicates)) was 98.9093 and the EC50 ([4]; pEC50 values, Mean, T271A mutant, Figure 5B, each row one independent experiment (3 replicates)) was 8.67 nM and 24.8 nM. The Emax ([4]; read-out: Emax values, Mean, T271A mutant, Figure 5B, β-PEA = 100, each row one independent experiment (3 replicates)) was 92.1%, the Emax ([4]; read-out: Span ± SEM (Emax normalized to β-PEA), T271A, n=2) was 95.5 ± 3.42% and the “ΔpEC50 values (each mutant value - WT average), Mean” value ([5]; Cryo EM Construct minus WT average) was 0.183 and 0.4564. For the same molecule, the “Normalized Luminescence Counts (N=2)” value ([5]; CryoEM Construct, log[Compound], M = -5, single replicates) was 109.262 and 115.846 and 129.746 and 127.392, the EC50 ([5]; EC50, CryoEM Construct, n=2) was 2.47 nM and the EC50 ([5]; pEC50 values, Mean, Cryo EM Construct, mean of each independent experiment (3 replicates)) was 3.5 nM and 1.87 nM. The Emax [5, 6] was 102 ± 2.88%.
